Our source for the IC50 values is patent US9890139B2, “CYP17 inhibitors/antiandrogens” (Orion Corporation, priority 2013, dated 2018).

One test concerns the target T1, full-length human AR (Homo sapiens, UniProt P10275).
T1 construct: expression vector encoding full-length human AR; expressed in transfected cells; host or cells: HEK293 (hAR/HEK293 cells)
T1 sequence (P10275 1-920): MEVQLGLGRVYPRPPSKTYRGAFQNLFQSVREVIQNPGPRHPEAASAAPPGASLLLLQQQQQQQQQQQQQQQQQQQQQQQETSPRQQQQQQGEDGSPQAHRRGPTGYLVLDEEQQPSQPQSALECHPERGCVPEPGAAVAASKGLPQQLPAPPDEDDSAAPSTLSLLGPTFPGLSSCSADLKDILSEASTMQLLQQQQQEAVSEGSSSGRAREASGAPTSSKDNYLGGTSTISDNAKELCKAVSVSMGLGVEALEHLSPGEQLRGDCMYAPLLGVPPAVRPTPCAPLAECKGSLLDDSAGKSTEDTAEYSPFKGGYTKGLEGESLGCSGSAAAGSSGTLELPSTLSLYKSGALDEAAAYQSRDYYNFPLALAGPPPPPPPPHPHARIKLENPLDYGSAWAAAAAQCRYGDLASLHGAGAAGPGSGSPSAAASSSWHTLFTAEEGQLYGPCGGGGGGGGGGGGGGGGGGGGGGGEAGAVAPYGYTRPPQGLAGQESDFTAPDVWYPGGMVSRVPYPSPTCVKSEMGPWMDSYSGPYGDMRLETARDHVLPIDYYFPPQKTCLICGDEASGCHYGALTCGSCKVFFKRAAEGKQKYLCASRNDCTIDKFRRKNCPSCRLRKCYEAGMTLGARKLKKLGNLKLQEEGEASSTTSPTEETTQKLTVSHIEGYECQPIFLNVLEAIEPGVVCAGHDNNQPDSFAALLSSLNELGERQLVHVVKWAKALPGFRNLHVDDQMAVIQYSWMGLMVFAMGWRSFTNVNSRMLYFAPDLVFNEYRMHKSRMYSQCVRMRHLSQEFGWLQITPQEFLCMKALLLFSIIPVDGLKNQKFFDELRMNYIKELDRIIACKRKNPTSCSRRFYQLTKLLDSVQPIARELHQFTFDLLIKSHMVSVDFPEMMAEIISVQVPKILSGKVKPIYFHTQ
Kind of test: AR antagonism, reporter gene assay in hAR/HEK293 cells. Type of test: cell-based. The settings on record: HEK293 cells stably transfected with full-length human AR and androgen responsive luciferase reporter; co-treated with submaximal testosterone (usually 0.45 nM); 1% DMSO; triplicates. (Reporter assays use an easily measured gene product as a stand-in for the process of interest.)

Another test addresses T2, 17,20 lyase (CYP17) (Homo sapiens, UniProt P05093).
T2 construct: endogenous in cells; host or cells: H295R human adrenocortical carcinoma cells
T2 sequence (P05093 1-508): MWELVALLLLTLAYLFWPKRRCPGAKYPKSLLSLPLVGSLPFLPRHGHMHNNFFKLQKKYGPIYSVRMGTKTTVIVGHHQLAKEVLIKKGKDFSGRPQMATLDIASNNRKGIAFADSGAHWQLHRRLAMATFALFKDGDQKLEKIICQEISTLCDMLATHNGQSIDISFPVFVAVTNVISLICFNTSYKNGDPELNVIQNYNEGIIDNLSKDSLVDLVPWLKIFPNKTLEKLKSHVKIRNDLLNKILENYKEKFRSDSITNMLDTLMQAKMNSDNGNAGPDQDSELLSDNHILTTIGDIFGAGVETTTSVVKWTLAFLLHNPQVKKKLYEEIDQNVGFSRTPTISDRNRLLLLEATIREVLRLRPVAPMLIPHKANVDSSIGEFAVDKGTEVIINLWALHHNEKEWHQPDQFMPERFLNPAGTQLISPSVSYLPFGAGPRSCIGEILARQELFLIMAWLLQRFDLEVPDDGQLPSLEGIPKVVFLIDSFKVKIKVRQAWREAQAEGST
Kind of test: 17,20 lyase (CYP17) inhibition, acetic acid release assay (AARA) on H295R cells. In kind it is cell-based. As for the experimental part: The ability of the test compounds to inhibit 17,20 lyase catalysed conversion of 17α-hydroxypregnenolone to dehydroepiandrosterone and acetic acid was measured by acetic acid release assay (AARA) on human H295R adrenocortical carcinoma cell line (Grigoryev, D. N. et al., Analytical Biochemistry 1999; 267:319-330). […] The final DMSO concentration was 1%. Cell culture medium was extracted with dextran-coated charcoal suspension (Isomaa, V. et al., Endocrinology 1982; 111(3):833-843). ^3H-acetic acid was determined by mixing 100 μl of supernatant fraction in 200 μl of scintillation fluid (OptiPhase SuperMix, Perkin Elmer). Radioactivity was measured using a Microbeta scintillation counter (1450 MicroBeta Trilux, Wallac). All the test compounds were studied in quadruplicates.

Take `CCN(c1ccc(C#N)c(C(F)(F)F)c1)C1CC=C(c2cncn2C2CC2)C1` (racemic) [Ex. 53, 4-((3-(1-Cyclopropyl-1H-imidazol-5-yl)cyclopent-3-enyl)(ethyl)amino)-2-(trifluoromethyl)benzonitrile]: the values for the concentration for half-maximal inhibition (IC50) on full-length human AR and against 17,20 lyase (CYP17) were 57 nM and 19 nM, respectively.
As to `CCN(c1ccc(C#N)c(C(F)(F)F)c1)C1CCC=C(c2ccncc2OC)C1` (single isomer, unassigned; isomer 4) [Ex. 84 3,4-isomer, 4-(Ethyl(3-(3-methoxypyridin-4-yl)cyclohex-3-en-1-yl)amino)-2-(trifluoromethyl)benzonitrile], the half-inhibitory concentration (IC50) (usually the point on the concentration scale where inhibition reaches its midpoint) came out at 50 nM on full-length human AR and 96 nM on 17,20 lyase (CYP17).
